Reference: patent US11986464B2, “5HT3R antagonist for use in treating aneurysms and cardiovascular risk” (University of Kentucky Research Foundation, priority 2021, dated 2024)

Columns and labels:
[1] = system: AngII-infused XYM Ldlr−/− mice; experiment: Atherosclerosis quantified en face (aortic arch, thoracic aorta); format: in vivo
Description: (§1) Male mice (XYM Ldlr−/−) were fed a Western diet (high fat, high sucrose, high cholesterol) beginning one week prior to the start of treatments. XYM Ldlr−/− mice were then administered two different doses of Trop (10 or 20 mg/kg/day) by osmotic minipump for 7 days. The minipumps were then replaced with new pumps containing both AngII (1,000 ng/kg/min) and Trop and treatment was continued for 28 days.
Atherosclerosis was quantified en face in the aortic arch. Briefly, the entire length of the aorta was removed and the intimal surface exposed, in its entirety, by a longitudinal cut through the inner curvature of the aortic arch and down the anterior aspect of the remaining aorta. A cut is also made through the greater curvature of the aortic arch to the subclavian branch. The tissue is then pinned to a dark surface. Arch areas were defined by drawing a 3-mm line from the left subclavian artery. The intimal area of the aortic arch was defined as the region from the orifice of innominate artery to the orifice of the left subclavian artery. Thoracic areas were defined by drawing a 9 mm line from the end of the arch area to the diaphragm muscle. Atherosclerotic areas were quantified by drawing a line around the borders and summing the total area of each. Lesions were summed and divided by the total arch or thoracic area to calculate the percent lesion area. Measurements were performed using Nikon NIS-Elements Version 5.2.

[2] = system: AngII-infused XYM Ldlr−/− mice; experiment: Maximal external diameters of excised abdominal aortas; format: in vivo; settings: ±SEM
Description: as §1, with “28 days. External abdominal aortic diameters were quantified on excised, cleaned tissue mounted on a black wax background. A Nikon SMZ800 dissecting microscope was used to obtain aorta images and the maximal external diameter of the abdominal aorta was measured using Nikon NIS-Elements Version 5.2.” for “28 days.”

[3] = system: AngII-infused XY male Ldlr−/− mice (XYM); experiment: AngII-induced aortic pathology (DTA, AA) and aortic weights; format: in vivo; settings: for mean weight of the aortas: 7 days then 28 days with AngII 1,000 ng/kg/min, ±SEM
Description: Tropisetron (Trop) is an exemplary 5HT3R antagonist used in these studies.^136 Effects of Trop were tested against AngII-induced aortic pathology in XY male Ldlr−/− mice (XYM). […] Mice were fed a Western diet (high fat, high sucrose, high cholesterol) beginning one week prior to the start of treatments. XYM Ldlr−/− mice were administered two different doses of Trop (10 or 20 mg/kg/day) by osmotic minipump for 7 days. The minipumps were then replaced with new pumps containing both AngII (1,000 ng/kg/min) and Trop and treatment was continued for 28 days. Aortas were removed from the iliac bifurcation to the end of the arch and fixed in formalin. Aortas were then cleaned and weighed.

[4] = system: AngII-infused XYM Ldlr−/− mice; experiment: Systolic and diastolic blood pressure induced by AngII; format: in vivo; settings: for mean systolic blood pressure: ±SEM
Description: as §1
Blood pressures were taken on five consecutive days. Measurements from the last three days were used to calculate blood pressures for each group. The mean systolic blood pressures are in mm Hg (±SEM): AngII=149±3.4; Trop 10=146±5.6; Trop 20=128±4.4. The mean diastolic blood pressures were in mm Hg: AngII=86±4.0; Trop 10=83±6.0; Trop 20=70±4.1 (FIG. 21).

[5] = system: AngII-infused XYM Ldlr−/− mice; experiment: Incidence and grading of AngII-induced abdominal aortic aneurysms; format: in vivo; settings: for mice with Abdominal Aneurysm Grade 0: 0 = no aneurysm; for mice with Abdominal Aneurysm Grade 4: 4 being a rupture
Description: as §1

[6] = system: AngII-infused XYM Ldlr−/− mice; experiment: Serum cholesterol and triglycerides by enzymatic assay kits; format: in vivo; settings: in mg/dL (unit assumed)
Description: Male mice (XYM Ldlr−/−) were fed a Western diet (high fat, high sucrose, high cholesterol) beginning one week prior to the start of treatments. XYM Ldlr−/− mice were then administered two different doses of Trop (10 or 20 mg/kg/day) by osmotic minipump for 7 days. The minipumps were then replaced with new pumps containing both AngII (1,000 ng/kg/min) and Trop and treatment was continued for 28 days. Concentrations of total serum cholesterol, triglycerides and free fatty acids were quantified (blood collected from cardiac puncture) using enzymatic assay kits.

[7] = system: AngII-infused XYM Ldlr−/− mice; experiment: Ultrasound internal lumen diameters of abdominal aortas; format: in vivo; settings: for average internal lumen diameter of abdominal aorta on Day 27: ultrasound, ±SEM, in mm (unit assumed)
Description: as §1
Internal lumen diameters of abdominal aortas from AngII treated mice treated with either dose of tropisetron were smaller than those from the AngII alone group after 27 days of treatment (FIG. 18). The average diameters on Day 27 were: AngII=1.77±0.35; Trop 10=1.32±0.23; Trop 20=1.20±0.28 (±SEM, *P<0.05 compared to AngII). The average diameters in all three groups increased from their baseline values with the AngII group having the largest increase followed by the Trop 20 and then Trop 10 group. […] An increase of 50% or more is considered an aneurysm.

[8] = system: Htr3a mRNA; settings: nicotine co-infused with AngII, compared to AngII
Description: (§2) Mice were fed a Western diet beginning one week prior to co-infusion of AngII (1,000 ng/kg/min) and nicotine (4 mg/kg/day^130). Ultrasound as used to quantify internal lumen diameters of AA to calculate the percentage of mice with pathology (50% increase compared to day 0 of infusions; FIG. 12A). […] Aortas were harvested for RNA extraction, and thus DTA maximal diameters could not be quantified at study endpoint.
To define potential mechanisms for these effects, and whether they are linked to 5HT3R, Htr3a mRNA abundance was quantified in DTA and AA of XXF and XYM AngII-infused mice.

[9] = system: AngII-infused XXF and XYM Ldlr−/− mice; settings: nicotine 4 mg/kg/day co-infused with AngII 1,000 ng/kg/min
Description: as §2

[10] = Trop 10 or 20 mg/kg/day, compared to AngII alone

With `CN1[C@@H]2CC[C@H]1C[C@@H](OC(=O)c1c[nH]c3ccccc13)C2` [Trop] the “atherosclerosis (percent lesion area) in the thoracic aortas” value ([1]; tropisetron 10 mg/kg/day) was 14.14±6.4%, the “percent lesion surface area of the aortic arch” value ([1]; tropisetron 10 mg/kg/day) was 14.92±5.3% and the “atherosclerosis (percent lesion area) in the thoracic aortas” value ([1]; tropisetron 20 mg/kg/day) was 7.43±7.95%. The “percent lesion surface area of the aortic arch” value ([1]; tropisetron 20 mg/kg/day) was 4.24±3.5%, the “mean external diameter of abdominal aorta” value ([2]; Trop 10 mg/kg/day) was 1.08±0.13 mm and the “mean external diameter of abdominal aorta” value ([2]; Trop 20 mg/kg/day) was 0.87±0.11 mm. The “mean weight of the aortas” value ([3]; Trop 10 mg/kg/day by osmotic minipump) was 0.035 g, the “mean weight of the aortas” value ([3]; Trop 20 mg/kg/day by osmotic minipump) was 0.023 g and the “percentage of AngII-induced pathology of AA” value [3, 10] was “dose-dependent reduction”. For the same compound, the “percentage of AngII-induced pathology of DTA” value [3, 10] was “dose-dependent reduction”, the “mean diastolic blood pressure” value ([4]; Trop 10 mg/kg/day) was 83±6.0 mm Hg and the “mean systolic blood pressure” value ([4]; Trop 10 mg/kg/day) was 146±5.6 mm Hg. The “mean diastolic blood pressure” value ([4]; Trop 20 mg/kg/day) was 70±4.1 mm Hg, the “mean systolic blood pressure” value ([4]; Trop 20 mg/kg/day) was 128±4.4 mm Hg and the “% Incidence of abdominal aneurysms” value ([5]; Trop 10 mg/kg/day) was 30%. For the same compound, the “mice with Abdominal Aneurysm Grade 1” value ([5]; Trop 10 mg/kg/day) was 3, the “mice with Abdominal Aneurysm Grade 2” value ([5]; Trop 10 mg/kg/day) was 0 and the “mice with Abdominal Aneurysm Grade 3” value ([5]; Trop 10 mg/kg/day) was 0. For the same compound, the “mice with Abdominal Aneurysm Grade 0” value ([5]; Trop 10 mg/kg/day) was 7, the “mice with Abdominal Aneurysm Grade 4” value ([5]; Trop 10 mg/kg/day) was 0 and the “% Incidence of abdominal aneurysms” value ([5]; Trop 20 mg/kg/day) was 20%. For the same compound, the “mice with Abdominal Aneurysm Grade 1” value ([5]; Trop 20 mg/kg/day) was 0, the “mice with Abdominal Aneurysm Grade 2” value ([5]; Trop 20 mg/kg/day) was 1 and the “mice with Abdominal Aneurysm Grade 3” value ([5]; Trop 20 mg/kg/day) was 0. For the same compound, the “mice with Abdominal Aneurysm Grade 0” value ([5]; Trop 20 mg/kg/day) was 8, the “mice with Abdominal Aneurysm Grade 4” value ([5]; Trop 20 mg/kg/day) was 1 and the serum cholesterol level ([6]; Trop 10 mg/kg/day) was 1683±109.5. It also gave a serum triglyceride level ([6]; Trop 10 mg/kg/day) of 652±73.6, a serum cholesterol level ([6]; Trop 20 mg/kg/day) of 1437±46.7 and a serum triglyceride level ([6]; Trop 20 mg/kg/day) of 549±54.4. The “average internal lumen diameter of abdominal aorta on Day 27” value ([7]; Trop 10 mg/kg/day) was 1.32±0.23, the “percent increase in abdominal aorta diameters on Day 27 compared to Day 0” value ([7]; Trop 20 mg/kg/day, compared to AngII, P<0.05) was “significantly different” and the “average internal lumen diameter of abdominal aorta on Day 27” value ([7]; Trop 20 mg/kg/day) was 1.20±0.28.
In the case of `CN1CCCC1c1cccnc1` (stereo not drawn) [nicotine], the “Htr3a mRNA abundance in AA” value ([8]; XXF and XYM mice) is reported as “significant increase”, the “Htr3a mRNA abundance in DTA” value [8] is reported as “no effect” and the “percentage of mice with pathology within the AA (50% increase in internal lumen diameter compared to day 0)” value [9] is reported as 50%.
